Results published in publication PMC7515946, “Targeting of Perforin Inhibitor into the Brain Parenchyma Via a Prodrug Approach Can Decrease Oxidative Stress and Neuroinflammation and Improve Cell Survival” (Molecular Neurobiology, 2020).
Values joined by “and” are separate entries in the source; they are usually repeats but may differ in a detail not shown here. Equal entries are not always repeated. “Also recorded” adds a separate entry of the source.

Legend:
LAT1 = molecular target: T1, LAT1 (Mus musculus, UniProt Q9Z127); assay: Ability to bind to LAT1: inhibition of [14C]-L-leucine uptake in astrocytes; type: cell-based; conditions: mouse primary astrocytes, 0.76 μM [14C]-L-leucine, 5 min, 37 °C
T1 construct: endogenous in cells; host or cells: mouse primary astrocytes (C57BL/6JOlaHsd), cortex and hippocampi
T1 sequence (Q9Z127 whole entry): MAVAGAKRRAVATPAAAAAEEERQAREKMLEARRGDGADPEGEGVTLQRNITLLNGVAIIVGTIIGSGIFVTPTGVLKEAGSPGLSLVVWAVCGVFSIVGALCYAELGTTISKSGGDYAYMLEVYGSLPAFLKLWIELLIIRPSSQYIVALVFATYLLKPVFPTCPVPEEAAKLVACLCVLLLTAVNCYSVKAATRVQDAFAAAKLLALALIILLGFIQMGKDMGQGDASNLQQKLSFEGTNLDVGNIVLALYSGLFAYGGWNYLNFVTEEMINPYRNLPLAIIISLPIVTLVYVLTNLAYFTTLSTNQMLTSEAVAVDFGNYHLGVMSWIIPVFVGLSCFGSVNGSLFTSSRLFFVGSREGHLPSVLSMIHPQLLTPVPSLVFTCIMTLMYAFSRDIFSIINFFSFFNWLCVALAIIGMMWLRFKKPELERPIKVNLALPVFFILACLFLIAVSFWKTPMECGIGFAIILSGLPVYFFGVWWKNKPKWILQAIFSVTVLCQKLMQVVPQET
T1 sequence (P10852 whole entry partner): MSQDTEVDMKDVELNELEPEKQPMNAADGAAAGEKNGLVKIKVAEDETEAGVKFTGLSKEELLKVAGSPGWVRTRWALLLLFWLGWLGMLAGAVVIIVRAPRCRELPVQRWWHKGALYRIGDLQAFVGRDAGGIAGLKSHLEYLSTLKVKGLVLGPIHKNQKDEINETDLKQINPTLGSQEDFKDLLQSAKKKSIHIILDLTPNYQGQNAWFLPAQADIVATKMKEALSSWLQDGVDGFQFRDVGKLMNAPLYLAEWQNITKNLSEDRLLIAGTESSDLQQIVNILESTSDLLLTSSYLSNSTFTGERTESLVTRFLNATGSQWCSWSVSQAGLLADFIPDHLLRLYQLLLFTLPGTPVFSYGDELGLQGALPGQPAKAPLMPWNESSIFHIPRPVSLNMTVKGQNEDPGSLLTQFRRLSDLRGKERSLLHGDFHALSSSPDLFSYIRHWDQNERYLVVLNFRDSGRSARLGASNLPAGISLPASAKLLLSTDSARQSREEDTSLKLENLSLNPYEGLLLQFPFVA
Description: For the transporter-binding studies, the astrocytes were seeded on 24-well plates with a density of 10 × 10^4 cells/well 3 days before the experiments. After removal of the culture medium, the cells were carefully washed with pre-warmed HBSS (Hank’s balanced salt solution) containing choline chloride (125 mM), KCl (4.8 mM), MgSO4 (1.2 mM), KH2PO4 (1.2 mM), CaCl2 (1.3 mM), glucose (5.6 mM), and HEPES (25 mM) adjusted to pH 7.4 with 1 M NaOH. The cells were pre-incubated with 500 μL of pre-warmed HBSS at 37 °C for 5 min before the experiments. To study the ability of studied compounds to inhibit the uptake of a known LAT1 substrate, the cells were incubated at 37 °C for 5 min with an uptake buffer (HBSS, 250 μL) containing 0.76 μM (0.25 mCi/mL or […]) of [^14C]-L-leucine (PerkinElmer, Waltham, MA, USA) and 0.1–1000 μM of studied compound (or HBSS as blank). After incubation, the uptake was stopped by adding 500 μL of ice-cold HBSS, and the cells were washed two times with ice-cold HBSS (2 × 500 μL). The cells were then lysed with 500 μL of NaOH (0.1 M) for 60 min and the lysate was mixed with 3.5 mL of Emulsifier-Safe cocktail (Ultima Gold, PerkinElmer, Waltham, MA, USA). The radioactivity in the cells was measured by liquid scintillation counting (MicroBeta^2 counter, PerkinElmer Waltham, MA, USA). Half of the maximum inhibitory concentration (IC50) values were calculated by nonlinear regression analysis (fitting the curve to log (concentration) vs. remaining normalized viability).

[1] = Intracellular unbound concentrations in astrocytes (RED dialysis, Kp,uu,cell); type: in vitro ADME; conditions: mouse; for fraction unbound at 4 h, 100 μM: astrocyte homogenate, RED, 37 °C, read-out: fu,cell (unbound fraction)
Description: The non-specific binding of compounds (100 μM) was determined in astrocyte homogenate by using the Rapid Equilibrium Dialysis (RED) device (Thermo Fisher Scientific, Inc., Waltham, MA, USA). Briefly, the astrocyte cell suspension (10 × 10^6 cells/mL) was homogenized with HBSS by the SoniPerp 150 Plus disintegrator (MSE Ltd., London, UK) (2 s × 3). The studied compound was mixed with 100 μL of cell homogenate and added to the reaction chamber. A 350-μL HBSS buffer was added to the buffer chamber. The dialysis plate was incubated at 37 °C for 4 h with shaking. Fifty microliters of samples were taken from the reaction and buffer chambers and equal size of the buffer or blank homogenate were added, respectively, to yield identical matrices. The proteins were precipitated by adding 100 μL of ice-cold ACN (including the selected internal standard; see above), and the supernatants were collected for LC-MS analysis (see above) after centrifugation at 12,000 × g for 10 min. The unbound drug fraction (fu,cell) was calculated by dividing concentration in the buffer chamber by concentration in the reaction chamber and taking into account the effect of homogenate dilution factor (D = 45 for 10 × 10^6 cells/mL cell suspension according to their weight of the cells) as described earlier.
The compound concentration ratios in astrocytes (Kp) was determined at 0.01–1.0 μM concentrations by comparing the cellular uptake amount (nmol) in cell lysates (0.1 M NaOH) per astrocyte cell volume (0.05810^−15 L/cell for 10 × 10^4 cells/well) to the concentrations (nM) detected from the surrounding buffer (HBSS) collected before cell lysing as described previously. The unbound drug concentration ratio (Kp,uu) was then calculated by multiplying the drug concentration ratio (Kp) by unbound drug fraction (fu,cell).

[2] = molecular target: T2, acetylcholinesterase (AChE) (Mus musculus, UniProt P21836); assay: biochemical; conditions: for IC50: mouse brain S9 fraction, acetylthiocholine 1 mM, 30 min endpoint
T2 construct: mouse brain S9 fraction was prepared by homogenizing freshly collected mouse brain; from tissue; host or cells: mouse brain S9 fraction (9000 x g supernatant)
T2 sequence (P21836 32-614): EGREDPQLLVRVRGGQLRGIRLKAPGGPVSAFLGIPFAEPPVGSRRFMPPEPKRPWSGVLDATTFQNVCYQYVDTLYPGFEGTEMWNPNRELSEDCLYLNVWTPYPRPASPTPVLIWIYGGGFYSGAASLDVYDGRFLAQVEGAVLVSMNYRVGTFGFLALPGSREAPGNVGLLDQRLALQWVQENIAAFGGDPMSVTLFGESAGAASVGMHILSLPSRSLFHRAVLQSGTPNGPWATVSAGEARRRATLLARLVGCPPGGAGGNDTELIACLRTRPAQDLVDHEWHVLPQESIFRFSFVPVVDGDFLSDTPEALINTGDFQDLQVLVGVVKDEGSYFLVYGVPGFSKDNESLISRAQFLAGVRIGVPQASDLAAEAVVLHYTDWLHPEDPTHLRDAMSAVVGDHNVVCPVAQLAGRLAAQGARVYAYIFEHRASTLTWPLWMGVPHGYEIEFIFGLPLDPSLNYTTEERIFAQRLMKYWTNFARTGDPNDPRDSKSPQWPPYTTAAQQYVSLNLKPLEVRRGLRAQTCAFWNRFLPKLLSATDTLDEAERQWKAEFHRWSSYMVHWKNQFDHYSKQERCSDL
Description: (§1) Briefly, mouse brain S9 fraction was prepared by homogenizing freshly collected mouse brain with 50 mM Tris-buffered saline (TBS) (pH 7.4) (1:4 w/v), centrifuging the homogenate at 9000 × g for 20 min at 4 °C and collecting the supernatant. The supernatant was then diluted 1:10 with phosphate buffer (100 mM; pH 7.0) and mixed with Ellman’s reagent (DTNB; 1 mM) and studied compounds in DMSO (DMSO concentration was less than 0.5%) on a 96-well plate as 3 parallel assays.
According to the Hanes–Woolf plots, the ratio of initial substrate concentration to the reaction velocity ([S]/v) was plotted against the substrate concentration (μM).

[3] = molecular target: T3, butyrylcholinesterase (BChE) (Mus musculus, UniProt Q03311); type: biochemical; conditions: mouse brain S9 fraction, butyrylthiocholine 1 mM, 30 min endpoint
T3 construct: mouse brain S9 fraction was prepared by homogenizing freshly collected mouse brain; from tissue; host or cells: mouse brain S9 fraction (9000 x g supernatant)
T3 sequence (Q03311 30-603): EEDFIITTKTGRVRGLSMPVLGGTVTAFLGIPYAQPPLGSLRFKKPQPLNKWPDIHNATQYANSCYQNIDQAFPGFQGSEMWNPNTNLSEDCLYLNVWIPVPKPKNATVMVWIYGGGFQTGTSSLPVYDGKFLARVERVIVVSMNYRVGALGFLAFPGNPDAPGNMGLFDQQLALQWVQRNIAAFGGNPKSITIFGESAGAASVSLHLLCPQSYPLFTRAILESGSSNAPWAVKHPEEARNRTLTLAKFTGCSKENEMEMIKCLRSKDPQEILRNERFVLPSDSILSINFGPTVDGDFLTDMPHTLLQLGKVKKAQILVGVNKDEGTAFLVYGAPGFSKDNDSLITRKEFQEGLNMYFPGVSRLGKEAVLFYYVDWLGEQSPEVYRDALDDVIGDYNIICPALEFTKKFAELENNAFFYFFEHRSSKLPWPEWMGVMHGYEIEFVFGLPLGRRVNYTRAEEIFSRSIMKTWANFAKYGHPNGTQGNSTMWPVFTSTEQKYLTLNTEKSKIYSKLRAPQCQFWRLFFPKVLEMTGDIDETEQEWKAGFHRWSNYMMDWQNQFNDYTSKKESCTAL
Description: as §1

[4] = set-up: method as in PMID 27266990; conditions: cited from earlier work

Row | SMILES | IC50 in astrocytes (inhibition of [14C]-L-leucine uptake) (LAT1) | fraction unbound at 4 h, 100 μM [1] | IC50 [2] | BChE IC50 value [3] | Amount of released PFI in the brain after the prodrug treatment ([4]; after PFI-PD 23 μmol/kg) | Brain levels of PFI after PFI dosing ([4]; dose 23 μmol/kg, LC-MS/MS) | IC50 (LAT1) | Kp uu at 50 nM ([1]; primary astrocytes, astrocytes, 50 nM concentration, read-out: Kp,uu,cell (unbound drug accumulation ratio)) | Type of AChE inhibition ([2]; Hanes–Woolf plot) | Vmax of AChE reaction in presence of inhibitor ([2]; mouse brain S9, acetylthiocholine, PFI-PD (12 μM), without inhibitor 2.21 ± 0.01) | Brain Cmax ([4]; dose 23 μmol/kg) | Unbound brain Cmax,u ([4]; dose 23 μmol/kg)
1 | O=C1OCc2cc(-c3ccc(-c4ccc(CO)cc4)s3)ccc21 [PFI] | did not exhibit any interaction with LAT1; also recorded: No inhibition | 0.0053 ± 0.0001 | 12 µM and 12.3 µM | No inhibition | 0.01 nmol/g of tissue | below the detection limit |  |  |  |  |  | 
2 | N[C@H](Cc1cccc(C(=O)OCc2ccc(-c3ccc(-c4ccc5c(c4)COC5=O)s3)cc2)c1)C(=O)O [PFI-PD] |  | 7e-05 ± 4e-05 | 8 µM and 8.15 µM | No inhibition |  |  | 4 µM and 3.5 µM | 2.01 ± 0.91 | mixed-type | 2.17 nmol/min/mg protein and 2.17 ± 0.02 nmol/min/mg protein | 0.12 nmol/g of tissue | 0.002 nmol/g of tissue
